# Assays:
# [1] = tested on: patient with small intestine/large intestine type Crohn's disease
# [2] = tested on: patient with small intestine/large intestine type Crohn's disease; assay: Clinical case: repeated administration of Infliximab under enteral administration of ELENTAL, Crohn's disease activity index (CDAI) and ulcer findings; format: in vivo, human; conditions: for CDAI two weeks later: ELENTAL continued
# Experimental: A patient is a person, and they are the patient with small intestine/large intestine type Crohn's disease that began. By August 2002, Crohn's disease repeatedly recurred and they were hospitalized three times.
# In July 2002, since Crohn's disease recurred again accompanied by stomachache, diarrhea and fever, 5 mg/kg of Infliximab (REMICADE® (trademark) 100 for drip infusion) under the enteral administration of 1200 kcal of ELENTAL® (trademark) was administered to the patient. The clinical activity index of Crohn's disease before the administration was 186 (150 or higher fall into the active stage). However, the index was lowered to 67 two weeks after the administration. During the period, an open longitudinal ulcer(s) seen in the transverse colon and sigmoid colon was cicatrized. After that, thought the patient was treated with the home enteral nutritional therapy, the symptoms recurred in February 2003 and CDAI increased up to 230. Continuing the enteral administration of ELENTAL® (trademark), Infliximab (5 mg/kg) was administered for the second time. Then, CDAI was lowered again to 63 two weeks later. […] Therefore, Infliximab (5 mg/kg) was administered for the third time, and CDAI was lowered to 80 two weeks later. Before and after the administration for the third time, it was confirmed that an open ulcer(s) of the sigmoid colon was cicatrized. Similarly, though CDAI increased in the 50th week, 68th week and 83rd week from the first administration, CDAI of 147 to 275 decreased to 50 to 80 […] by the fourth, fifth and sixth time administrations of Infliximab. During that time, administration of ELENTAL was continued.
# Usually, the repeated administration of Infliximab promotes production of antibody and, therefore, its effect weakens in the repeated administration.
substance,measurement,setting,value
Infliximab,tuberculosis bacterium infection,[1]; first to sixth administration of Infliximab with ELENTAL,not seen
same,infection in organs of respiration or in a urinary tract,"[1]; human, in vivo",no finding of indication of infection
same,CDAI at recurrence of symptoms,"[2]; February 2003, after first Infliximab administration, under home enteral nutritional therapy, before second administration",230
same,open ulcer(s) of the sigmoid colon,[2]; before and after the third administration of Infliximab 5 mg/kg under ELENTAL,cicatrized
same,open longitudinal ulcer(s) in the transverse colon and sigmoid colon,[2]; during the two weeks after first administration of Infliximab 5 mg/kg under ELENTAL,cicatrized
same,clinical activity index of Crohn's disease (CDAI) two weeks after the administration,"[2]; first administration, Infliximab 5 mg/kg drip infusion under enteral ELENTAL 1200 kcal, index before administration 186 (150 or higher = active stage)",67
same,CDAI two weeks later,"[2]; second administration of Infliximab 5 mg/kg, CDAI before 230",63
same,CDAI two weeks later,"[2]; third administration of Infliximab 5 mg/kg, CDAI before 250",80
same,CDAI increase under administration of ELENTAL,"[2]; two months after second administration, before third administration",250
